From patent US8518700B2, “Composition for reprogramming somatic cells to generate induced pluripotent stem cells, comprising Bmi1 and low molecular weight substance, and method for generating induced pluripotent stem cells using the same” (Korea University Research and Business Foundation, priority 2010, dated 2013)

Tests used:
Format in all cases: cell-based
[1] = system: Bmi1-transduced mouse somatic cells (neurosphere-like cells); experiment: Reprogramming of neurosphere-like cells from Bmi1-transduced mouse somatic cells (neural stem cell condition with bFGF and EGF) into iPS cells; details: 2 mM VPA; one week; condition used for mouse embryonic stem cells
Description: (§1) Mouse somatic cells, in detail, mouse fibroblasts were employed to generate embryonic stem cell-like cells. Embryos were taken from CF1 strain mice on embryonic day 13.5. Cells were cultured in DMEM (high glucose, w/o sodium pyruvate) supplemented with 10% FBS (Fetal bovine serum), 0.1 mM non-essential amino acid, 1% penicillin/streptomycin and 0.1 mM β-mercaptoethanol in tissue culture flasks, after which fibroblasts at the 3rd passage were seeded at a density of 2×10^5 cells/well into 6-well plates.
(§2) For use in gene transfer, retrovirus particles were prepared from the PT67 packaging cell line. In this context, a pBabe puro Bmi1 (from Dr. G. P. Dimri, Evanston Northwestern Healthcare Research Institute, Feinberg School of Medicine, Northwestern University, Evanston, Ill. 60201, USA), constructed by inserting a human Bmi1 gene (NCBI accession No. L13689) into a pBabe puro vector, was transfected into a PT67 packaging cell line (Clontech) with the aid of Turbofect (Fermentas), followed by drug selection with puromycine (3 μg/ml, BD bioscience). The PT67 packaging cell line allowed the production of high-titer viruses capable of infecting a broad range of mammalian host cells.
(§3) The expression of each gene was monitored with RT-PCR. […]

[2] = system: Bmi1-transduced mouse somatic cells (neurosphere-like cells); experiment: Reprogramming of neurosphere-like cells from Bmi1-transduced mouse somatic cells (EGF-free neural stem cell condition) into iPS cells; details: 1 μM BIX01294 and 0.5 μM RG108 together; one week; condition used for mouse embryonic stem cells
Description: as §1, §2, §3

[3] = system: Bmi1-transduced mouse somatic cells (Oct4-positive cells); experiment: Reprogramming of Oct4-positive Bmi1-transduced mouse somatic cells into iPS cells by treatment with low molecular weight substances; details: 0.5 μM PD0325901 and 3 μM CHIR99021 together; culture conditions of mouse embryonic stem cells
Description: as §1, §2, §3

| SMILES | Reprogramming into iPS cells (BC-iPS 2) [2] | Reprogramming into iPS cells (BC-iPS 1) [3] | other results |
| --- | --- | --- | --- |
| CCCC(CCC)C(=O)O [VPA, 2-propylenepentanoic acid] | – | – | Reprogramming into iPS cells [1]: iPS cells were established |
| COc1cc2nc(N3CCCN(C)CC3)nc(NC3CCN(Cc4ccccc4)CC3)c2cc1OC [BIX01294, 2-(Hexahydro-4-methyl-1H-1,4-diazepin-1-yl)-6,7-dimethoxy-N-[1-(phenylmethyl)-4-piperidinyl]4-quinazolinamine] | establish iPS cells | – | – |
| O=C(NOC[C@H](O)CO)c1ccc(F)c(F)c1Nc1ccc(I)cc1F [PD0325901] | – | establish induced stem cells | – |
| O=C(O)[C@H](Cc1c[nH]c2ccccc12)N1C(=O)c2ccccc2C1=O [RG108, N-Phthalyl-L-tryptophan] | establish iPS cells | – | – |
| Cc1c[nH]c(-c2cnc(NCCNc3ccc(C#N)cn3)nc2-c2ccc(Cl)cc2Cl)n1 [CHIR99021] | – | establish induced stem cells | – |
